Data as given in patent publication US11098044B2, “Imidazopyridinyl compounds and use thereof for treatment of neurodegenerative disorders” (1ST Biotherapeutics, Inc., priority 2019, dated 2021).
Where a name gives a salt, the structure may show the parent alone.

What was measured:
Assay type in all cases: biochemical
[1] = molecular target: c-Abl (His-tagged recombinant human ABL1) (Homo sapiens (Human), UniProt P00519); test: c-abl Kinase Assay (ADP-Glo); conditions: ATP (25 μM), Abltide substrate
c-Abl (His-tagged recombinant human ABL1), sequence (P00519 whole entry): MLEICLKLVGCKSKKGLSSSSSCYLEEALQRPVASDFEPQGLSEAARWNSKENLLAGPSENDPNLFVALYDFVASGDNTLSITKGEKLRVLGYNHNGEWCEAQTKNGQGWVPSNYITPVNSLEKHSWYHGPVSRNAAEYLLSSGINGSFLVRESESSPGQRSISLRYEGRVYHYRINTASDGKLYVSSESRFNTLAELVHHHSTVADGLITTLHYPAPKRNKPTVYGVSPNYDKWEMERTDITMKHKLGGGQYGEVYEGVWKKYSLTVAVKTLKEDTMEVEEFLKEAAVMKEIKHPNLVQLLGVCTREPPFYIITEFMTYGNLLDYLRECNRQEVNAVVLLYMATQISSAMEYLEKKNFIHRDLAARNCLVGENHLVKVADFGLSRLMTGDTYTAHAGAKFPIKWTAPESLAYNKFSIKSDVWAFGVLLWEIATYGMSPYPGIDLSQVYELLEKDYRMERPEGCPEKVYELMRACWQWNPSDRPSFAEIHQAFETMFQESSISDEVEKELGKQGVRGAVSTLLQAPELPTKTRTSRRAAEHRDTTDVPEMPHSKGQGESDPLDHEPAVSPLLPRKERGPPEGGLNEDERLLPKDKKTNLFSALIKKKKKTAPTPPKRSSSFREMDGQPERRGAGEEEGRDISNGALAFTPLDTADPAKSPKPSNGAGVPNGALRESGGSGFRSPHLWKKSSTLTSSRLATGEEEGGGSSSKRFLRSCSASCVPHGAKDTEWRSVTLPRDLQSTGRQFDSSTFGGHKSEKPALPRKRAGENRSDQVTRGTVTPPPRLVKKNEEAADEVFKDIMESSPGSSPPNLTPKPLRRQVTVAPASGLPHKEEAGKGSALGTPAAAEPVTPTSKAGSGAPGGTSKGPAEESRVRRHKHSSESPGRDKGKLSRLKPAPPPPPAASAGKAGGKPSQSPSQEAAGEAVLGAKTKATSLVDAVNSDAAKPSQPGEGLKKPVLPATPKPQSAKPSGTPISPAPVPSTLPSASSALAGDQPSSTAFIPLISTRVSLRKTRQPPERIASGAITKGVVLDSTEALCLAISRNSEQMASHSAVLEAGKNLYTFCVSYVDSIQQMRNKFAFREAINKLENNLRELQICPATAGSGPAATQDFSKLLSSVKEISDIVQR
Experimental: ADP-Glo assay kit was purchased from Promega. Magnesium chloride (MgCl2), bovine serum albumin (BSA), ethylene glycol-bis(p-aminoethyl ether)-N,N,N′,N′-tetraacetic acid (EGTA), triton X-100, 1,4-dithiothreitol (DTT) and dimethyl sulfoxide (DMSO) were purchased from Sigma-Aldrich. HEPES buffer was purchased from Gibco. ABL1 kinase and Abltide were purchased from Signalchem.
c-Abl kinase activity was measured by Promega's ADP-Glo™ Assay. In this assay, His-tagged recombinant human ABL1 (0.25 ng/μl) is incubated with 5 μL of compounds (0.5% DMSO), 5 μL of Abltide (0.01 μg/μl) and 5 μL of ATP (25 μM) in buffer (50 mM HEPES, 7.5; 10 mM MgCl2; 1 mM EGTA; 0.05% BSA; 0.01% Triton X-100; 2 mM DTT). The assay was started by incubating the reaction mixture in a 96-well plate at 30° C. for 30-min. After the incubation, 25 μL ADP-Glo reagent was added and the reaction was incubated at room temperature for 40-min to stop the reaction and degrade residual ATP. The ADP product was then converted to ATP by adding 50 μL per well of detection reagent. Luminescence was detected after 30-min room temperature incubation with the Molecular device I3X plate reader. The IC50 values were calculated from a series of percent inhibition values determined at a range of inhibitor concentration using software routines as implemented in the GraphPad Prism 7 software and Sigma Plot 13.0.

LRRK2 (WT) = LRRK2 (WT) (Homo sapiens (Human), UniProt Q5S007); test: LRRK2 Kinase Assay (Adapta); conditions: 70 μM ATP, LRRKtide substrate
LRRK2 (WT), sequence (Q5S007 whole entry): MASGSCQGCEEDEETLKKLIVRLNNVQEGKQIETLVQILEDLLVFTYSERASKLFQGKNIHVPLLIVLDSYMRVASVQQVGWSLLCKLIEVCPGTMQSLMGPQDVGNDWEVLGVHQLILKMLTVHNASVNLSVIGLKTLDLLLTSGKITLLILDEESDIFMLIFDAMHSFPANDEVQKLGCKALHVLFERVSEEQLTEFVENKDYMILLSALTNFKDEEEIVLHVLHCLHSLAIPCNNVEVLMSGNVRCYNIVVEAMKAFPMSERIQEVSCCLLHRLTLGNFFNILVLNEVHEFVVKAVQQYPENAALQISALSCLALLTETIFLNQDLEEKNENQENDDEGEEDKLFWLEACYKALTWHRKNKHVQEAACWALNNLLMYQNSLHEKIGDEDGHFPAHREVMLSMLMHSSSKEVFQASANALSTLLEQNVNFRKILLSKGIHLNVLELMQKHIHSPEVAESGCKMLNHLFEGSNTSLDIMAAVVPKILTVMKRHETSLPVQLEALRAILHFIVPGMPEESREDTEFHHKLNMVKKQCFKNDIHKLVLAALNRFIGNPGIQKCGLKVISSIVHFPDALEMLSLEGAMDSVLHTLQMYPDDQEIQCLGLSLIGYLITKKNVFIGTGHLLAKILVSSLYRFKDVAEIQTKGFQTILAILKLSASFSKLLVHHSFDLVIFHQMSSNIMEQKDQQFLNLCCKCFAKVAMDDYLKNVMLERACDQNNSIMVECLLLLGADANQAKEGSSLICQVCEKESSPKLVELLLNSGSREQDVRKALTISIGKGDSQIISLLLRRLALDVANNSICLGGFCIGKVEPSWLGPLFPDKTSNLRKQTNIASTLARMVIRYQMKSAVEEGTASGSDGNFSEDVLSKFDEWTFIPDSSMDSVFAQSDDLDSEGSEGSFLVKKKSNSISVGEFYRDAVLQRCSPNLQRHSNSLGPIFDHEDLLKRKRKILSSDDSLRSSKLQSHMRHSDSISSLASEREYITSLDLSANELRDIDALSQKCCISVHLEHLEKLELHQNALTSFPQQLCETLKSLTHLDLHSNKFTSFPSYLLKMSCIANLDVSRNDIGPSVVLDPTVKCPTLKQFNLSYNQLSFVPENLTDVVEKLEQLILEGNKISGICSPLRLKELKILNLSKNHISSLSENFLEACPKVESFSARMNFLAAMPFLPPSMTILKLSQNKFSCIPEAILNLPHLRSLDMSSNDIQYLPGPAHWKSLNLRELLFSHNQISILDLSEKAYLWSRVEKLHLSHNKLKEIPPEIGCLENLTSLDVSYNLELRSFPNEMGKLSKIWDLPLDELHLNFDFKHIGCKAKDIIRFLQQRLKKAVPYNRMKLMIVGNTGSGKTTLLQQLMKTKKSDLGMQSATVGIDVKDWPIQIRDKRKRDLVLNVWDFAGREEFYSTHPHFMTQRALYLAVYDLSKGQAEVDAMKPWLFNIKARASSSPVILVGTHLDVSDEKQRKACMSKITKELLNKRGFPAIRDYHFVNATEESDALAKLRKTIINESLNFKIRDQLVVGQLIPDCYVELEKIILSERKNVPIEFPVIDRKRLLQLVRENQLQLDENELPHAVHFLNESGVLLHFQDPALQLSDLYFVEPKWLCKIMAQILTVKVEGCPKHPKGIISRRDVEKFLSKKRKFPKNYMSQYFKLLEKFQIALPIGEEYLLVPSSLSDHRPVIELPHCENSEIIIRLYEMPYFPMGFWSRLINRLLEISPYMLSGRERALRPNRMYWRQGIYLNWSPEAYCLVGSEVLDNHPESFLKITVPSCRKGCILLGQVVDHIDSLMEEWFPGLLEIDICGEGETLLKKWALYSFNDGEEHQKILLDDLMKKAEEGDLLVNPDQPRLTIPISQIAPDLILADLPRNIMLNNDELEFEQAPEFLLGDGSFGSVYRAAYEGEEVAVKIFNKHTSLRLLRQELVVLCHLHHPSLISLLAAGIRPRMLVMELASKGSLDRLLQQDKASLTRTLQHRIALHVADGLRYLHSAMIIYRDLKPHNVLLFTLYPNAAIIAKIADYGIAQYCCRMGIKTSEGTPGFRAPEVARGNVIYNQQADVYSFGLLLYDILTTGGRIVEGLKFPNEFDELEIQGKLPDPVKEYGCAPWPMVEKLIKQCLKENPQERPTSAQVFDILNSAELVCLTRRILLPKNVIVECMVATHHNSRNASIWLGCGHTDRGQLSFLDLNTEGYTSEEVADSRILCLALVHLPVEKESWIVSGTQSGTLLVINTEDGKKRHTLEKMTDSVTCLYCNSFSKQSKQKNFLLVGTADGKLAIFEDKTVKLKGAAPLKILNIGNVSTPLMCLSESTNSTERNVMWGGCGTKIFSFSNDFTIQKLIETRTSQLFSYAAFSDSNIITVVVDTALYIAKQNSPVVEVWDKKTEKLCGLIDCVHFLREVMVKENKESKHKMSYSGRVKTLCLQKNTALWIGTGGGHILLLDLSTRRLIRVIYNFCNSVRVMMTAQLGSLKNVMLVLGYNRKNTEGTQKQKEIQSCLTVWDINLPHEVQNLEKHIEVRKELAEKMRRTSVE
Experimental: (§1) The LRRK2 and LRRK2 G2019S kinase assays were performed using the Adapta™ technology in ThermoFisher Scientific. This experiment was carried out according to the supplier's protocol. Briefly, assay conditions were as follows. The mixture of substrate (LRRKtide) and each kinase was prepared in 50 mM Tris pH 8.5, 0.01% BRIJ-35, 10 mM MgCl2, 1 mM EGTA, 0.02% NaN3. Assays were performed in the presence of 70 μM ATP and 100 μM ATP (KmATP) in LRRK2 and LRRK2 G2019S, respectively. The reaction was progressed at room temperature for 1 hour. Upon completion of kinase reaction, 5 μL of Detection Mix was added and after 60 min incubation time, the emission ratio of 665/615 nm was calculated.

LRRK2 G2019S = LRRK2 G2019S (Homo sapiens (Human), UniProt Q5S007, G2019S); test: LRRK2 G2019S Kinase Assay (Adapta); conditions: 100 μM ATP, LRRKtide substrate; read-out: LRRK2_G2019S IC50
LRRK2 G2019S, sequence (Q5S007 whole entry G2019S): as the sequence (Q5S007 whole entry) above, with G2019S counted along it
Experimental: as §1

SMILES	IC50 [1] [nM]	IC50 (LRRK2 (WT)) [nM]	IC50 (LRRK2 G2019S) [nM]
Cc1c(F)cccc1-c1ccc2nc(NC(=O)[C@H]3C[C@@H]3F)cn2c1 (stereo in doubt) [Example 71, 2-fluoro-N-(6-(3-fluoro-2-methylphenyl)imidazo[1,2-a]pyridin-2-yl)cyclopropanecarboxamide]	< 10	101 to 1000	10 to 100
Cc1c(F)cccc1-c1ccc2nc(NC(=O)[C@@H]3C[C@H]3F)cn2c1 (stereo in doubt) [Example 72, 2-fluoro-N-(6-(3-fluoro-2-methylphenyl)imidazo[1,2-a]pyridin-2-yl)cyclopropanecarboxamide]	< 10	10 to 100	10 to 100
Cc1c(F)cccc1-c1ccc2nc(NC(=O)[C@H]3C[C@H]3F)cn2c1 (stereo in doubt) [Example 73, 2-fluoro-N-(6-(3-fluoro-2-methylphenyl)imidazo[1,2-a]pyridin-2-yl)cyclopropanecarboxamide]	< 10	101 to 1000	10 to 100
Cc1c(F)cccc1-c1ccc2nc(NC(=O)[C@@H]3C[C@@H]3F)cn2c1 [Example 1, (1S,2S)-2-fluoro-N-(6-(3-fluoro-2-methylphenyl)imidazo[1,2-a]pyridin-2-yl)cyclopropane-1-carboxamide Hydrochloride]	< 10	10 to 100	10 to 100
Cc1cccc(F)c1-c1ccc2nc(NC(=O)[C@@H]3C[C@@H]3F)cn2c1 [Example 2, (1S,2S)-2-fluoro-N-(6-(2-fluoro-6-methylphenyl)imidazo[1,2-a]pyridin-2-yl)cyclopropane-1-carboxamide]	< 10	101 to 1000	10 to 100
Cc1c(F)cccc1-c1ccc2nc(NC(=O)[C@@H]3C[C@@H]3F)c(Cl)n2c1 [Example 3, (1S,2S)—N-(3-chloro-6-(3-fluoro-2-methylphenyl)imidazo[1,2-a]pyridin-2-yl)-2-fluorocyclopropane-1-carboxamide]	10 to 100	101 to 1000	101 to 1000
Cc1cccc(C)c1-c1ccc2nc(NC(=O)[C@@H]3C[C@@H]3F)cn2c1 [Example 42, (1S,2S)—N-(6-(2,6-dimethylphenyl)imidazo[1,2-a]pyridin-2-yl)-2-fluorocyclopropane-1-carboxamide]	–	101 to 1000	101 to 1000
COc1ccncc1-c1ccc2nc(NC(=O)[C@@H]3C[C@@H]3F)cn2c1 [Example 48, (1S,2S)-2-fluoro-N-(6-(4-methoxypyridin-3-yl)imidazo[1,2-a]pyridin-2-yl)cyclopropane-1-carboxamide]	–	10 to 100	10 to 100
Cc1c(F)cccc1-c1ccc2nc(NC(=O)[C@@H]3C[C@@H]3F)c(Br)n2c1 [Example 58, (1S,2S)—N-(3-bromo-6-(3-fluoro-2-methylphenyl)imidazo[1,2-a]pyridin-2-yl)-2-fluorocyclopropane-1-carboxamide]	10 to 100	–	–
Cc1c(F)cccc1-c1ccc2nc(NC(=O)C3CC3(F)F)cn2c1 (centres unmarked) [Example 77, 2,2-difluoro-N-(6-(3-fluoro-2-methylphenyl)imidazo[1,2-a]pyridin-2-yl)cyclopropanecarboxamide]	–	101 to 1000	10 to 100
Cc1c(-c2ccc3nc(NC(=O)[C@@H]4C[C@@H]4F)cn3c2)cnc2[nH]ccc12 [Example 86, (1S,2S)-2-fluoro-N-(6-(4-methyl-1H-pyrrolo[2,3-b]pyridin-5-yl)imidazo[1,2-a]pyridin-2-yl)cyclopropanecarboxamide]	< 10	–	–
O=C(Nc1cn2cc(-c3cnc4[nH]ccc4c3Cl)ccc2n1)[C@@H]1C[C@@H]1F [Example 87, (1S,2S)—N-(6-(4-chloro-1H-pyrrolo[2,3-b]pyridin-5-yl)imidazo[1,2-a]pyridin-2-yl)-2-fluorocyclopropanecarboxamide]	< 10	–	–
Cc1ccccc1-c1ccc2nc(NC(=O)[C@@H]3C[C@@H]3F)cn2c1 [Example 88, (1S,2S)-2-fluoro-N-(6-(o-tolyl)imidazo[1,2-a]pyridin-2-yl)cyclopropanecarboxamide]	< 10	–	–
O=C(Nc1cn2cc(-c3cccc(F)c3O)ccc2n1)[C@@H]1C[C@@H]1F [Example 89, (1S,2S)-2-fluoro-N-(6-(3-fluoro-2-hydroxyphenyl)imidazo[1,2-a]pyridin-2-yl)cyclopropanecarboxamide]	< 10	–	–
Nc1c(F)cccc1-c1ccc2nc(NC(=O)[C@@H]3C[C@@H]3F)cn2c1 [Example 90, (1S,2S)—N-(6-(2-amino-3-fluorophenyl)imidazo[1,2-a]pyridin-2-yl)-2-fluorocyclopropanecarboxamide]	< 10	–	–
Cc1cc2cc[nH]c2cc1-c1ccc2nc(NC(=O)[C@@H]3C[C@@H]3F)cn2c1 [Example 91, (1S,2S)-2-fluoro-N-(6-(5-methyl-1H-indol-6-yl)imidazo[1,2-a]pyridin-2-yl)cyclopropanecarboxamide]	< 10	–	–
Cc1cc2[nH]ccc2cc1-c1ccc2nc(NC(=O)[C@@H]3C[C@@H]3F)cn2c1 [Example 92, (1S,2S)-2-fluoro-N-(6-(6-methyl-1H-indol-5-yl)imidazo[1,2-a]pyridin-2-yl)cyclopropanecarboxamide]	< 10	–	–
CN(C)c1c(F)cccc1-c1ccc2nc(NC(=O)[C@@H]3C[C@@H]3F)cn2c1 [Example 93, (1S,2S)—N-(6-(2-(dimethylamino)-3-fluorophenyl)imidazo[1,2-a]pyridin-2-yl)-2-fluorocyclopropanecarboxamide]	10 to 100	–	–
Cc1cc2nc[nH]c2cc1-c1ccc2nc(NC(=O)[C@@H]3C[C@@H]3F)cn2c1 [Example 94, (1S,2S)-2-fluoro-N-(6-(5-methyl-1H-benzo[d]imidazol-6-yl)imidazo[1,2-a]pyridin-2-yl)cyclopropanecarboxamide]	< 10	–	–
CCc1c(F)cccc1-c1ccc2nc(NC(=O)[C@@H]3C[C@@H]3F)cn2c1 [Example 95, (1S,2S)—N-(6-(2-ethyl-3-fluorophenyl)imidazo[1,2-a]pyridin-2-yl)-2-fluorocyclopropanecarboxamide]	< 10	–	–
O=C(Nc1cn2cc(-c3ccccc3C(F)(F)F)ccc2n1)[C@@H]1C[C@@H]1F [Example 96]	10 to 100	–	–
O=C(Nc1cn2cc(-c3cccc(F)c3C3CC3)ccc2n1)[C@@H]1C[C@@H]1F [Example 97, (1S,2S)—N-(6-(2-cyclopropyl-3-fluorophenyl)imidazo[1,2-a]pyridin-2-yl)-2-fluorocyclopropanecarboxamide]	< 10	–	–
CNc1c(F)cccc1-c1ccc2nc(NC(=O)[C@@H]3C[C@@H]3F)cn2c1 [Example 98, (1S,2S)-2-fluoro-N-(6-(3-fluoro-2-(methylamino)phenyl)imidazo[1,2-a]pyridin-2-yl)cyclopropanecarboxamide]	< 10	–	–
Cc1cc2ncoc2cc1-c1ccc2nc(NC(=O)[C@@H]3C[C@@H]3F)cn2c1 [Example 99, (1S,2S)-2-fluoro-N-(6-(5-methylbenzo[d]oxazol-6-yl)imidazo[1,2-a]pyridin-2-yl)cyclopropanecarboxamide]	< 10	–	–
Cc1ccc2[nH]cnc2c1-c1ccc2nc(NC(=O)[C@@H]3C[C@@H]3F)cn2c1 [Example 100, (1S,2S)-2-fluoro-N-(6-(5-methyl-1H-benzo[d]imidazol-4-yl)imidazo[1,2-a]pyridin-2-yl)cyclopropane-1-carboxamide]	10 to 100	–	–
Cc1ccc2ocnc2c1-c1ccc2nc(NC(=O)[C@@H]3C[C@@H]3F)cn2c1 [Example 102, (1S,2S)-2-fluoro-N-(6-(5-methylbenzo[d]oxazol-4-yl)imidazo[1,2-a]pyridin-2-yl)cyclopropanecarboxamide]	< 10	–	–
Cc1cc2ncsc2cc1-c1ccc2nc(NC(=O)[C@@H]3C[C@@H]3F)cn2c1 [Example 103, (1S,2S)-2-fluoro-N-(6-(5-methylbenzo[d]thiazol-6-yl)imidazo[1,2-a]pyridin-2-yl)cyclopropanecarboxamide]	< 10	–	–
Cc1c(-c2ccc3nc(NC(=O)[C@@H]4C[C@@H]4F)cn3c2)ccc2ncsc12 [Example 104, (1S,2S)-2-fluoro-N-(6-(7-methylbenzo[d]thiazol-6-yl)imidazo[1,2-a]pyridin-2-yl)cyclopropanecarboxamide]	< 10	–	–
CC(C)c1c(F)cccc1-c1ccc2nc(NC(=O)[C@@H]3C[C@@H]3F)cn2c1 [Example 105, (1S,2S)-2-fluoro-N-(6-(3-fluoro-2-isopropylphenyl)imidazo[1,2-a]pyridin-2-yl)cyclopropanecarboxamide]	101 to 1000	–	–
